The record followed here is patent EP3597653A1, “CYCLIC INHIBITORS OF HEPATITIS B VIRUS” (IRBM S.P.A., priority 2018, dated 2020).

This test has as its system HBV. The test can be described thus: HBV inhibition assay in HepAD38 cells (extracellular HBV DNA by direct qPCR). The test is classed as cell-based. Particulars: Hepatitis B virus, 96 hours; for inhibition at 0.5 µM: compound at 0.5 µM; for inhibition at 0.5 µM / inhibition at 1 µM: relative to non-treated reference, read-out: Anti HBV Activity (conc µM); for EC50: 8-point dose-response curve, read-out: HBV inh EC50; for inhibition at 1 µM: compound at 1 µM. An excerpt:
HepAD38 cell line (Ladner et al., Antimicrob Agents Chemother, 1997, 41, 1715-20) was used for HBV inhibition assays. HepAD38 is a subclone, derived from Hepatoblastoma cell line HepG2 (ATCC® Number: HB-8065™), that expresses HBV genome under the control of a tetracycline-responsive promoter in a TET-OFF system: addition of tetracycline suppresses HBV replication, while its removal switches on the process allowing HBV viral particles release in the cell supernatant. HepAD38 cell line is maintained in DMEM/F12, supplemented with 10% of fetal bovine serum, 1% of glutamine, 1% of penicillin/streptomycin, 0.4 mg/ml G418 and 0,3 ug/ml tetracycline. For the HBV inhibition assay, doxycycline-free medium is used in order to allow virion production.
HBV inhibition activity in vitro was performed in 96 multiwell plates. During the initial (primary) screening compounds were first tested in triplicates at concentrations of 0.1µM, 0.5µM amd 1µM. For selected compounds, an 8-point dose-response curve can be obtained using 1:2 serial dilutions (starting from 2.5 µM, 1.25µM or 0.4 µM, depending on the degree of inhibition observed during the primary screening). From the dose-response curves, half maximal effective concentration (EC50) can be calculated (see also below).
In more detail, compounds - typically dissolved in DMSO stock solutions - are diluted to 2x the final desired concentration in 100 µl of the above medium (without doxycycline) and plated in three replicates in the 96-well plates.
Simultaneously, HepAD38 cells - extensively pre-washed in tetracycline-free medium in order to induce HBV production - are suspended at 2*10^4 cells in 100 µl of tetracycline-free medium and added to each well of the plate, to yield a final assay volume of 200 µl DMSO - used for stock solutions and compounds dilutions - which is always present in the assays at a final concentration of 0.5%.
Plates are then incubated 96 hours at 37°C and then subjected to cell viability assay in order to define compounds cytotoxicity and to extracellular HBV quantification in order to evaluate antiviral activity of compounds. Cytotoxicity is assessed by a commercial fluorescence assay that measures the metabolic activity of cells, directly related to cell viability (Cell Titer Blue, Promega). Anti-HBV activity was evaluated by quantification of extracellular HBV DNA with direct qPCR. In particular, supernatant was collected and centrifuged for cell debris clarification, viral DNA was extracted from virions by addition of lysis buffer (1 mM 1,4-dithiothreitol, 0.2% sodium dodecyl sulphate) and incubated at 95°C for 10 min. Samples were then diluted 1:40 and real time PCR amplification was performed with SYBR green assay (Power SYBR™ Green PCR Master Mix-Thermo Fisher Scientific) and specific HBV primer (HBV-DF:5'-[…]-3' (SEQ ID No. 1), HBV-DR:5'-[…]-3' (SEQ ID No. 2)).
All HBV inhibition or antiviral activity data are typically reported in percent (%) relative to a non-treated reference sample. Excel and Graphpad Prism programs are typically used for data elaboration and EC50 calculation.

As for `O=C(Nc1cc(F)c(F)c(F)c1)c1ccc2c(c1)S(=O)(=O)NC1(N2)C(=O)Nc2ccccc21` (racemic) [Example E56, 2'-oxo-N-(3,4,5-trifluorophenyl)-2H,4H-spiro[benzo[e][1,2,4]thiadiazine-3,3'-indoline]-7-carboxamide 1,1-dioxide], the inhibition at 0.5 µM was more than 50%.

As for `O=C(Nc1cc(F)c(F)c(F)c1)c1ccc2c(c1)S(=O)(=O)N[C@]1(N2)C(=O)Nc2ccccc21` (single isomer, unassigned) [Example E129], the EC50 was more than 1 µM.

Regarding `O=C(Nc1cc(F)c(F)c(F)c1)c1ccc2c(c1)S(=O)(=O)N[C@@]1(N2)C(=O)Nc2ccccc21` (single isomer, unassigned) [Example E130], the EC50 is less than 1 µM.

Regarding `O=C(Nc1cc(F)c(F)c(F)c1)c1ccc2c(c1)S(=O)(=O)NCN2` [Example E1, N-(3,4,5-trifluorophenyl)-3,4-dihydro-2H-benzo[e][1,2,4]thiadiazine-7-carboxamide 1,1-dioxide], the inhibition at 1 µM is more than 50%.

Regarding `[2H]C1([2H])Nc2ccc(C(=O)Nc3cc(F)c(F)c(F)c3)cc2S(=O)(=O)N1` [Example E2, N-(3,4,5-trifluorophenyl)-3,4-dihydro-2H-benzo[e][1,2,4]thiadiazine-3,3-d2-7-carboxamide 1,1-dioxide], the inhibition at 0.5 µM was more than 50%.

As to `CN1CNS(=O)(=O)c2cc(C(=O)Nc3cc(F)c(F)c(F)c3)ccc21` [Example E3, 4-methyl-N-(3,4,5-trifluorophenyl)-3,4-dihydro-2H-benzo[e][1,2,4]thiadiazine-7-carboxamide 1,1-dioxide], the inhibition at 1 µM is less than 50%.

For `O=C(Nc1cc(F)c(F)c(F)c1)c1ccc2c(c1)S(=O)(=O)NCN2O` [Example E4, 4-hydroxy-N-(3,4,5-trifluorophenyl)-3,4-dihydro-2H-benzo[e][1,2,4]thiadiazine-7-carboxamide 1,1-dioxide], the inhibition at 0.5 µM is less than 50%.

On to `O=C(Nc1cc(F)c(F)c(F)c1)c1ccc2c(c1)S(=O)(=O)N(O)CN2` [Example E5, 2-hydroxy-N-(3,4,5-trifluorophenyl)-3,4-dihydro-2H-benzo[e][1,2,4]thiadiazine-7-carboxamide 1,1-dioxide], for which the inhibition at 0.5 µM was less than 50%.

Consider `CN1CNc2ccc(C(=O)Nc3cc(F)c(F)c(F)c3)cc2S1(=O)=O` [Example E6, 2-methyl-N-(3,4,5-trifluorophenyl)-3,4-dihydro-2H-benzo[e][1,2,4]thiadiazine-7-carboxamide 1,1-dioxide], for which the inhibition at 1 µM was less than 50%.

As to `O=C(Nc1cc(F)c(F)c(F)c1)c1cc2c(cc1Cl)NCNS2(=O)=O` [Example E7, 6-chloro-N-(3,4,5-trifluorophenyl)-3,4-dihydro-2H-benzo[e][1,2,4]thiadiazine-7-carboxamide 1,1-dioxide], the EC50 was less than 1 µM.

As for `O=C(Nc1cc(F)c(F)c(F)c1)c1cc2c(cc1Br)NCNS2(=O)=O` [Example E8, 6-bromo-N-(3,4,5-trifluorophenyl)-3,4-dihydro-2H-benzo[e][1,2,4]thiadiazine-7-carboxamide 1,1-dioxide], the inhibition at 1 µM was more than 50%.

In the case of `Cc1cc2c(cc1C(=O)Nc1cc(F)c(F)c(F)c1)S(=O)(=O)NCN2` [Example E9, 6-methyl-N-(3,4,5-trifluorophenyl)-3,4-dihydro-2H-benzo[e][1,2,4]thiadiazine-7-carboxamide 1,1-dioxide], the inhibition at 0.5 µM was more than 50%.

On to `CC1Nc2cc(Cl)c(C(=O)Nc3cc(F)c(F)c(F)c3)cc2S(=O)(=O)N1` (centres unmarked) [Example E10, 6-chloro-3-methyl-N-(3,4,5-trifluorophenyl)-3,4-dihydro-2H-benzo[e][1,2,4]thiadiazine-7-carboxamide 1,1-dioxide], for which the concentration giving a half-maximal response (EC50) was less than 1 µM.

Take `O=C(Nc1ccc(F)c(F)c1)c1ccc2c(c1)S(=O)(=O)NC1(COC1)N2` [Example E11, N-(3,4-difluorophenyl)-2H,4H-spiro[benzo[e][1,2,4]thiadiazine-3,3'-oxetane]-7-carboxamide 1,1-dioxide]: the inhibition at 1 µM is less than 50%.

As a reminder, the EC50 is the concentration at which the effect is half-maximal.
